The values below come from ChEMBL document CHEMBL4392874, “Inhibitory Effects of Phenylpropanoid Derivatives from Oenanthe javanica on Antigen-Stimulated Degranulation in RBL-2H3 Cells” (J Nat Prod, 2019).

One series deals with HeLa. Put plainly: Cytotoxicity against human HeLa cells assessed as reduction in cell viability at 12.5 to 100 ug/ml measured after 12 hrs by crystal violet staining based assay.
In series [1] the test system is RBL-2H3. Nature of the series: Antiallergic activity in […]-stimulated rat RBL2H3 cells assessed as inhibition of anti-DNP-IgE-mediated degranulation by measuring decrease in beta-hexosaminidase activity preincubated for 20 mins followed by DNP-BSA stimulation. It is filed as functional, cell-based.
For series [2], the system named is RBL-2H3. Nature of the series: Antiallergic activity in rat RBL2H3 cells assessed as inhibition of A23187-induced beta hexosaminidase release after 1 hr by para-nitrophenyl-N-acetyl-beta-d-glucosaminide substrate based assay. In kind it is functional, cell-based.
In series [3] the test system is RBL-2H3. Nature of the series: Antiallergic activity in rat RBL2H3 cells assessed as inhibition of A23187/PMA-induced beta hexosaminidase release after 1 hr by para-nitrophenyl-N-acetyl-beta-d-glucosaminide substrate based assay. In kind it is functional, cell-based.
The test system of series [4] is RBL-2H3. Nature of the series: Cytotoxicity against rat RBL2H3 cells assessed as reduction in cell viability at 6.3 to 50 ug/ml measured after 3 hrs by CCK8 assay. It is filed as cell-based. The conditions noted are these: rbl-2h3, 3 h. Background: Tetrazolium dyes change colour on reduction, which living cells bring about.

Turning to `COc1cc(-c2oc3cc(O)cc(O)c3c(=O)c2O)ccc1O` [ISORHAMNETIN], the Activity entry in the series on HeLa is on record as “Non-Toxic”.
With `O=C1O[C@H](c2ccc(O)cc2)[C@@H](C(=O)O)/C1=C\c1ccc(O)cc1`, the inhibition result in the series on RBL-2H3 [1], in the series on RBL-2H3 [2] and with RBL-2H3 [3] was “Dose-dependent effect” in each case. In addition, the Activity result in the series with HeLa and in the series on RBL-2H3 [4] was “Non-Toxic” each time.
For the molecule `O=C(/C=C/c1ccc(O)c(O)c1)O[C@H]1[C@@H](C(=O)O)OC(C(=O)O)=C[C@H]1OC(=O)/C=C/c1ccc(O)c(O)c1`, the inhibition result in the series on RBL-2H3 [1], in the series with RBL-2H3 [2] and in the series on RBL-2H3 [3] was “Dose-dependent effect” in each case. The Activity result in the series with HeLa and with RBL-2H3 [4] was “Non-Toxic” each time.
For `O=C(O)C(=Cc1ccc(O)cc1)/C=C/c1ccc(O)cc1` (mixture of isomers), the inhibition result in the series with RBL-2H3 [1], with RBL-2H3 [2] and in the series with RBL-2H3 [3] was “Dose-dependent effect” in each case. The Activity entry with HeLa and with RBL-2H3 [4] was “Non-Toxic” each time.
As for `O=c1c(O)c(-c2ccc(O)c(O)c2)oc2cc(O)cc(O)c12` [QUERCETIN], the Activity result in the series with HeLa is recorded as “Toxic”.
